# Key:
# human ChoKα1 = biological target: T1, human ChoKα1 (Homo sapiens, UniProt P35790); experiment: Tryptophan fluorescence quenching; assay type: binding; details: mean ± S.D. of at least three independent experiments; 25 °C, enzyme 1 μM; read-out: HsChoKα1 Kd
# T1 construct: made in house
# Protocol: All compounds were prepared in 100% DMSO. Their Kds against human ChoKα1 were measured by monitoring the quenching of tryptophan fluorescence. All experiments were performed in a Cary Eclipse spectrofluorometer (Varian) at 25 °C with the enzymes at 1 μM, and concentrations of compounds varying from 0.1 to 5 μM for ChoKα1 in 25 mM Tris, 150 mM NaCl, pH 7.5. Fluorescence emission spectra were recorded in the 300–400 nm range with an excitation wavelength of 280 nm, with slit width of 5 nm. Controls were determined by incubating the enzymes with equivalent amounts of DMSO. As indicated previously, data analysis was performed in Prism (GraphPad software) considering a model with a single binding site (Eq. 1), where F0 is the intrinsic fluorescence of the enzyme in the absence of quencher (Q), F1 is the observed fluorescence at a given quencher concentration, fa is the fractional degree of fluorescence, and Kd is the dissociation constant.
# purified human ChoKα1 = purified human ChoKα1 (Homo sapiens, UniProt P35790); experiment: Determination of human choline kinase α1 activity ([methyl-14C]choline incorporation into phosphocholine); assay type: biochemical; details: mean ± SEM, three independent experiments; read-out: IC50 ChoKα1 purified
# Chain of purified human ChoKα1 (P35790 whole entry): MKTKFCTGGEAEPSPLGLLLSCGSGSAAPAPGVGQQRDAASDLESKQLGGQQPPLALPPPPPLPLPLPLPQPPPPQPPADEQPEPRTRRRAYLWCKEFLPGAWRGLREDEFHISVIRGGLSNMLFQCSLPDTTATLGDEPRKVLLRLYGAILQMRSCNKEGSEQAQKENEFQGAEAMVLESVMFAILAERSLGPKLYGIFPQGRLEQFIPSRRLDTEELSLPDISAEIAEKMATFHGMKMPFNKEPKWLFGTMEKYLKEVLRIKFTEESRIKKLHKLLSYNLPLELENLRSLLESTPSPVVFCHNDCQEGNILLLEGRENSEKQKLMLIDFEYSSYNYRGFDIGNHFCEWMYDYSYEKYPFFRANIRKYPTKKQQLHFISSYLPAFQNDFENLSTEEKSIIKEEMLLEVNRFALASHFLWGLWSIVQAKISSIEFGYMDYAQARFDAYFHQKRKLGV
# Protocol: The effect of the different inhibitors on human choline kinase (ChoK) was assayed in ChoKα1 purified as previously described[32]. In each experiment DMSO-assays were always run in parallel as a control. DMSO in no case exceeded a concentration of 0.1% in order to avoid unspecific ChoK inhibition. ChoK activity was assayed by measuring the rate of incorporation of ^14C from [methyl-^14C]choline into phosphocholine both in the presence or absence of different inhibitor concentrations. Briefly, the final reaction mixture contained 100 mM Tris (pH 8.5), 10 mM MgCl2, and 10 mM ATP, and 20 ng of purified ChoKα1. […] The assay was stopped by immersing the reaction tubes in boiling water for 3 min. Aliquots of the reaction mixture were applied to the origin of Silica Gel plates in the presence of phosphocholine (0.1 mg) and choline (0.1 mg) as carriers. The chromatography was developed in methanol/0.6% NaCl/28% NH4OH in water (50:50:5, v/v/v) as solvent. Phosphocholine was visualized under exposure to iodine vapor and the corresponding spot was scraped and transferred to scintillation vials for measurement of radioactivity by a Beckman 6000-TA (Madrid, Spain) liquid-scintillation counter. At least three experiments were performed in all assays.
# PBL (+Pha) = experiment: Antiproliferative assay in non-tumoral cells (MTT); assay type: cell-based; details: Homo sapiens, non-tumoral cells stimulated with phytohematoagglutinin, 72 h, mean ± SEM
# Protocol: (§1) Peripheral mononuclear cells (PBMC) from healthy donors were obtained by separation on Lymphoprep (Fresenius KABI Norge AS) gradient. After extensive washing, cells were resuspended (1 × 10^6 cells/mL) in RPMI-1640 with 10% fetal bovine serum and incubated overnight. For cytotoxicity evaluations in proliferating PBL cultures, non-adherent cells were resuspended at 5 × 10^5 cells/mL in growth medium, containing 2.5 μg/mL PHA (Irvine Scientific). Different concentrations of the test compounds were added, and viability was determined 72 h later by the MTT test. For cytotoxicity evaluations in resting PBL cultures, non-adherent cells were resuspended (5 × 10^5 cells/mL) and treated for 72 h with the test compounds, as described above.
# PBL (resting) = experiment: Antiproliferative assay in non-tumoral cells (MTT); assay type: cell-based; details: Homo sapiens, 72 h, mean ± SEM
# Protocol: as §1
# HUVEC = experiment: Antiproliferative assay in non-tumoral cells; assay type: cell-based; details: Homo sapiens, mean ± SEM
# Protocol: Human Umbilical Vein Endothelial cells (HUVEC), were prepared from human umbilical-cord veins, as previously described. The adherent cells were maintained in M200 medium added by LSGS (low serum growth supplement), containing FBS, hydrocortisone, hEGF, bFGF, heparin, gentamycin/amphotericin (Life Technologies, Monza, Italy). Once confluent, the cells were detached by trypsin–EDTA solution and used in experiments from the first to sixth passages.
# [1] = tested on: panel of nine different human tumor-cell lines; experiment: Antiproliferative activity against the panel of nine human tumor-cell lines; assay type: cell-based; details: Homo sapiens; range or bound over all tested cell lines; read-out: GI50 across the tumor-cell line panel
# Protocol: Human T-cell leukemia (Jurkat), human B-cell leukemia (RS 4,11) and human promyelocytic leukemia (HL-60) cells were grown in RPMI-1640 medium (Gibco, Milan, Italy). Breast adenocarcinoma (MCF-7 and MDA-MB-231), human non-small cell lung carcinoma (A549), human cervix carcinoma (HeLa), human prostate adenocarcinoma (PC-3), and human colon adenocarcinoma (HT-29) cells were grown in DMEM medium (Gibco, Milan, Italy). Both media were supplemented with 115 units/mL of penicillin G (Gibco, Milan, Italy), 115 μg/mL of streptomycin (Invitrogen, Milan, Italy) and 10% fetal bovine serum (Invitrogen, Milan, Italy). Stock solutions (10 mM) of the different compounds were obtained by dissolving them in DMSO. Individual wells of 96-well tissue-culture microtiter plates were inoculated with 100 μL of complete medium containing 8 × 10^3 cells. The plates were incubated at 37 °C in a humidified 5% CO2 incubator for 18 h prior to the experiments. After medium removal, 100 μL of fresh medium containing the test compound at different concentrations was added to each well and incubated at 37 °C for 72 h. The percentage of DMSO in the medium in no case exceeded 0.25%.
# Jurkat cells [2] = experiment: Trypan blue exclusion assay; assay type: cell-based, human
# Protocol: Human T-cell leukemia (Jurkat), human B-cell leukemia (RS 4,11) and human promyelocytic leukemia (HL-60) cells were grown in RPMI-1640 medium (Gibco, Milan, Italy). Breast adenocarcinoma (MCF-7 and MDA-MB-231), human non-small cell lung carcinoma (A549), human cervix carcinoma (HeLa), human prostate adenocarcinoma (PC-3), and human colon adenocarcinoma (HT-29) cells were grown in DMEM medium (Gibco, Milan, Italy). […] Stock solutions (10 mM) of the different compounds were obtained by dissolving them in DMSO. Individual wells of 96-well tissue-culture microtiter plates were inoculated with 100 μL of complete medium containing 8 × 10^3 cells. The plates were incubated at 37 °C in a humidified 5% CO2 incubator for 18 h prior to the experiments. […] In additional experiments, cell viability was also determined by calculating the values of trypan blue positive cells (dead cells) and trypan blue negative (live cells) from a mixture of the cell suspension and 0.4% trypan blue solution. page 7: S-7 0 24 48 72 0.0 2.0x10 5 4.0x10 5 6.0x10^5 Cells/ml Time ([…] Figure S5 […] washed, counted, and incubated in a drug-free medium. After a further 72 h of incubation, cell viability was analyzed by trypan blue exclusion assay as described in the experimental section. (1 picture or pasted object on this page, not shown here)
# Jurkat cells [3] = experiment: Annexin-V/PI assay; assay type: cell-based, human; details: 72 h, positive controls Cis-Pt 50 μM, Etoposide 5 μM
# Protocol: (§2) Surface exposure of PS on apoptotic cells was measured by flow cytometry with Cytomics FC500 (Beckman Coulter) by adding simultaneously annexin-V conjugated to fluorescein isothiocyanate (FITC) and PI to cells according to the manufacturer′s instructions (Annexin-V Fluos, Roche Diagnostic).
# MCF-7 cells = experiment: Annexin-V/PI assay; assay type: cell-based, human; details: MCF-7, 72 h; positive controls Cis-Pt 50 μM, Etoposide 5 μM
# Protocol: as §2
# MDA-MB-231 cells = experiment: Annexin-V/PI assay; assay type: cell-based, human; details: MDA-MB-231, 72 h; positive controls Cis-Pt 50 μM, Etoposide 5 μM
# Protocol: as §2
# T1 sequence (P35790 whole entry): as above
compound,measurement,setting,value
"CN(C)c1cc[n+](Cc2ccc(OCCOc3ccc(C[n+]4ccc(N(C)C)cc4)cc3)cc2)cc1.[Br-].[Br-] [Compound 10a, 1,1′-(((ethane-1,2-diylbis(oxy))bis(4,1-phenylene))bis(methylene))bis(4-(dimethylamino)pyridinium) bromide]",Kd,human ChoKα1,700 ± 80 nM
same,IC50,purified human ChoKα1,1000 ± 10 nM
same,GI50,PBL (+Pha),34 ± 7 nM
same,GI50,PBL (resting),1500 ± 640 nM
same,GI50,HUVEC,5100 ± 430 nM
same,GI50,[1],27 to 120 nM
same,Proliferation after washout of compound,"Jurkat cells [2]; 72 h treatment, washed, further 72 h in drug-free medium",proliferation continued to be inhibited
same,Cell growth by trypan blue count,Jurkat cells [2]; concentration-dependent,significantly inhibited cell growth
same,Apoptotic cells (annexin-V/PI),Jurkat cells [3],modest increment in apoptotic cells
same,Apoptotic cells (annexin-V/PI),MCF-7 cells,not to be significantly different from that of the untreated cells
same,Apoptotic cells (annexin-V/PI),MDA-MB-231 cells,not to be significantly different from that of the untreated cells

# Source: article PMC4814829, “Design, synthesis, crystallization and biological evaluation of new symmetrical biscationic compounds as selective inhibitors of human Choline Kinase α1 (ChoKα1)” (Scientific Reports, 2016)
